According to patent US20070110833A1, “Composition comprising the alcohol compound isolated from the extract of cucurbitaceae family plant having anti-adipogenic and anti-obesity activity” (priority 2003, published 2007):

Test system: 3T3-L1 cell
Test: Inhibition of adipocyte (3T3-L1) differentiation and triglyceride accumulation, Oil Red O staining
Format: cell-based
Description: Adipocyte cell (3T3-L1) purchased from ATCC (American Tissue Culture Collection, USA) was cultured in RPMI medium containing 10% FBS and MDI cocktail (isobutylmethylxanthine, dexamethasone, insulin) was added thereto for differentiating into mature adipocytes cell. After two days, the medium was replaced and treated with only insulin. Thereafter, the medium was replaced and equal concentration of insulin was treated again every other day. MDI ranging from 2.5 to 1000 ug/ml of the concentration was treated when the adipocytes differentiation was induced and equal concentration of the MDI was treated at every replacement of the medium.
After eight days lapsed, the accumulated fat within differentiated cell was stained with Oil Red O staining reagent and the absorbance was determined with optical density qualitatively. The inhibition percentage (%) was calculated by following Empirical formula 1. The Inhibition Percentage (%)=[O.D. of test group]/[O.D. value of Control group]×100 [Empirical Formula 1]

C[S+]([O-])c1ccc(-c2nc(-c3ccncc3)c(-c3ccc(F)cc3)[nH]2)cc1 (centres unmarked) [SB203580]
adipocyte differentiation and triglyceride accumulation (Experimental Example 1-3, cmc-9 and controls, FIG. 5): the triglyceride was not formed
level of produced triglycerides in differentiated 3T3-L1 cells (Oil Red O) (MDI-induced differentiation, 8 days, extracts 1 mg/ml, SB203580 10 uM, FIGS. 1 and 2): the triglyceride was not produced
